Tests used:
Conditions in all cases: Compound concentration 1.0 uM
[1] = molecular target: Activated CDC42 kinase 1 (Homo sapiens) (UniProt Q07912)
[2] = molecular target: Protein-tyrosine kinase 6 (Homo sapiens) (UniProt Q13882)
Homo sapiens = organism: Homo sapiens
[3] = molecular target: Mitogen-activated protein kinase kinase kinase kinase 5 (Homo sapiens) (UniProt Q9Y4K4)
[4] = molecular target: Serine/threonine-protein kinase pim-2 (Homo sapiens) (UniProt Q9P1W9)
[5] = molecular target: T1, Serine/threonine-protein kinase D2 (Homo sapiens) (UniProt Q9BZL6)
T1 sequence (whole entry): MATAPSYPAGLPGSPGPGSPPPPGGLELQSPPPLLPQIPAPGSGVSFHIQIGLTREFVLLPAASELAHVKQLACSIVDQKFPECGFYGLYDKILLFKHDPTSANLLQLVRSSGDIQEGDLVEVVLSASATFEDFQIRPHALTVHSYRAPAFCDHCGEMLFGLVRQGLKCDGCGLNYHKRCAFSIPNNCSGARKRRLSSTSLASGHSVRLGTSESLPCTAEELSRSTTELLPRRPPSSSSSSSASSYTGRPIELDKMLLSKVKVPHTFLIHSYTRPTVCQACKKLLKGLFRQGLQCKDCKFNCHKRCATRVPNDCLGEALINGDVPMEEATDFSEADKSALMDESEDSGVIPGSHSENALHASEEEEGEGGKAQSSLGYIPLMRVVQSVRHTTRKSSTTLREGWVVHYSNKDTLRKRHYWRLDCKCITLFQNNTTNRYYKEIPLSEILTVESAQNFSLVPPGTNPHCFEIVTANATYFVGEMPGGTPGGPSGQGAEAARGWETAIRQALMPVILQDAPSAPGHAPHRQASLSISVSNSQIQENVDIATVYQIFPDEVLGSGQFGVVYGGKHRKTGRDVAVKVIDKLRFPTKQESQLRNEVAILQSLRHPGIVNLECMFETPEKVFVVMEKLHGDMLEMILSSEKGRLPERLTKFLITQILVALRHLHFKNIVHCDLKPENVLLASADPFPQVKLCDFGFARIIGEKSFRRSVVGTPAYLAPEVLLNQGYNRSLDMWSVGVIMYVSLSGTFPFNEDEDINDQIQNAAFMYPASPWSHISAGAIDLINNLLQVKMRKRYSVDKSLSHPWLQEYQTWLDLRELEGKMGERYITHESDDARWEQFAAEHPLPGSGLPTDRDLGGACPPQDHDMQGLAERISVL

[6] = molecular target: T2, cGMP-dependent protein kinase 2 (Homo sapiens) (UniProt Q13237)
T2 sequence (whole entry): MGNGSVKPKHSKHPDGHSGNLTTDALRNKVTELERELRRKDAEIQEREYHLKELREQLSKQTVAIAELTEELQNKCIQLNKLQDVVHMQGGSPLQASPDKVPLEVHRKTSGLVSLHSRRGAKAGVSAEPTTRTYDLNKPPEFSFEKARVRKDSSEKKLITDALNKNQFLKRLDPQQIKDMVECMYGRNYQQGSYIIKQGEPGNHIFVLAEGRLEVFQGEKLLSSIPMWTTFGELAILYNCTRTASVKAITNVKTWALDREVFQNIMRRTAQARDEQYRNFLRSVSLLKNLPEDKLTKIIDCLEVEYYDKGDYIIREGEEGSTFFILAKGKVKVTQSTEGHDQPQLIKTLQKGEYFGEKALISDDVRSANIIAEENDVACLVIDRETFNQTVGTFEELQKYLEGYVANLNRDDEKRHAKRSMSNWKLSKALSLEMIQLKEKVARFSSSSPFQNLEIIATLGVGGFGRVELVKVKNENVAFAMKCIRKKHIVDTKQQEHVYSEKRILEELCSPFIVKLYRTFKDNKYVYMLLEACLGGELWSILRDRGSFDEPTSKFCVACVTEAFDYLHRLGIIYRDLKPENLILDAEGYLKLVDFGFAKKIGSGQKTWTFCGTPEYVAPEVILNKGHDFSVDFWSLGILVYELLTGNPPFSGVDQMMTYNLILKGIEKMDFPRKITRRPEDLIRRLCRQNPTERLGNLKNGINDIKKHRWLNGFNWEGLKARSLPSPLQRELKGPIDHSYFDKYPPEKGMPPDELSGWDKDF

[7] = molecular target: T3, cAMP-dependent protein kinase catalytic subunit PRKX (Homo sapiens) (UniProt P51817)
T3 sequence (whole entry): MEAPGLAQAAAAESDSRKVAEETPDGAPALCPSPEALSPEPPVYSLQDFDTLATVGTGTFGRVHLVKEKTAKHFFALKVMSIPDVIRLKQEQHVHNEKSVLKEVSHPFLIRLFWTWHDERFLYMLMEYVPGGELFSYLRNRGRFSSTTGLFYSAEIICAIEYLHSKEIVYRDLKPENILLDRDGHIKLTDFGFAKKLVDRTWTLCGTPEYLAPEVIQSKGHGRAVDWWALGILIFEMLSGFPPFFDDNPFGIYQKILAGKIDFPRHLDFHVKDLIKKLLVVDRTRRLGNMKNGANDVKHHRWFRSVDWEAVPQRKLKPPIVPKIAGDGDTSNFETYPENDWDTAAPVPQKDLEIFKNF

[8] = molecular target: Ribosomal protein S6 kinase alpha-3 (Homo sapiens) (UniProt P51812)
Sequence of Ribosomal protein S6 kinase alpha-3 (Homo sapiens) (P51812 whole entry): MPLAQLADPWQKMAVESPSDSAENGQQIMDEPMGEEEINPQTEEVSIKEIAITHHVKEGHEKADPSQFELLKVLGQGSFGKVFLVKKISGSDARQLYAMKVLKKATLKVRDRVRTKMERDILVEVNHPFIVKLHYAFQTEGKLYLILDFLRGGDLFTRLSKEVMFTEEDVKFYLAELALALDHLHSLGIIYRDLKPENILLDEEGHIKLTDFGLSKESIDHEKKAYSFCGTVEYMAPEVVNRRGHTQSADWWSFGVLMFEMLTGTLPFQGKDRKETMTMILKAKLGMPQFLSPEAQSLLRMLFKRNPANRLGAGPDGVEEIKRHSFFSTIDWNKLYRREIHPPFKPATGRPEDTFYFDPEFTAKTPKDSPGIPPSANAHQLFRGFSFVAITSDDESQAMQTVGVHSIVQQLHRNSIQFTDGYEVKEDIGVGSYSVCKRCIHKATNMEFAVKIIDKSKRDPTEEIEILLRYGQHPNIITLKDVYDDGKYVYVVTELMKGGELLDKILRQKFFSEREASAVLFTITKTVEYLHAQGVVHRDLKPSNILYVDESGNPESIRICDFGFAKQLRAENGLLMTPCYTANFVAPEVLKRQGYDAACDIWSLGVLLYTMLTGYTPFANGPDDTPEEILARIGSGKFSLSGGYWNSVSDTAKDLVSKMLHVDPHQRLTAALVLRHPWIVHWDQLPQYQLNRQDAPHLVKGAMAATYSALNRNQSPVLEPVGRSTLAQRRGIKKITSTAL

[9] = molecular target: Serine/threonine-protein kinase 32C (Homo sapiens) (UniProt Q86UX6)
[10] = molecular target: Angiopoietin-1 receptor (Homo sapiens) (UniProt Q02763)
ATR/ATRIP (Homo sapiens) = ATR/ATRIP (Homo sapiens) (UniProt Q13535+Q8WXE1)
Sequence of ATR/ATRIP (Homo sapiens) (Q13535 whole entry, looked up): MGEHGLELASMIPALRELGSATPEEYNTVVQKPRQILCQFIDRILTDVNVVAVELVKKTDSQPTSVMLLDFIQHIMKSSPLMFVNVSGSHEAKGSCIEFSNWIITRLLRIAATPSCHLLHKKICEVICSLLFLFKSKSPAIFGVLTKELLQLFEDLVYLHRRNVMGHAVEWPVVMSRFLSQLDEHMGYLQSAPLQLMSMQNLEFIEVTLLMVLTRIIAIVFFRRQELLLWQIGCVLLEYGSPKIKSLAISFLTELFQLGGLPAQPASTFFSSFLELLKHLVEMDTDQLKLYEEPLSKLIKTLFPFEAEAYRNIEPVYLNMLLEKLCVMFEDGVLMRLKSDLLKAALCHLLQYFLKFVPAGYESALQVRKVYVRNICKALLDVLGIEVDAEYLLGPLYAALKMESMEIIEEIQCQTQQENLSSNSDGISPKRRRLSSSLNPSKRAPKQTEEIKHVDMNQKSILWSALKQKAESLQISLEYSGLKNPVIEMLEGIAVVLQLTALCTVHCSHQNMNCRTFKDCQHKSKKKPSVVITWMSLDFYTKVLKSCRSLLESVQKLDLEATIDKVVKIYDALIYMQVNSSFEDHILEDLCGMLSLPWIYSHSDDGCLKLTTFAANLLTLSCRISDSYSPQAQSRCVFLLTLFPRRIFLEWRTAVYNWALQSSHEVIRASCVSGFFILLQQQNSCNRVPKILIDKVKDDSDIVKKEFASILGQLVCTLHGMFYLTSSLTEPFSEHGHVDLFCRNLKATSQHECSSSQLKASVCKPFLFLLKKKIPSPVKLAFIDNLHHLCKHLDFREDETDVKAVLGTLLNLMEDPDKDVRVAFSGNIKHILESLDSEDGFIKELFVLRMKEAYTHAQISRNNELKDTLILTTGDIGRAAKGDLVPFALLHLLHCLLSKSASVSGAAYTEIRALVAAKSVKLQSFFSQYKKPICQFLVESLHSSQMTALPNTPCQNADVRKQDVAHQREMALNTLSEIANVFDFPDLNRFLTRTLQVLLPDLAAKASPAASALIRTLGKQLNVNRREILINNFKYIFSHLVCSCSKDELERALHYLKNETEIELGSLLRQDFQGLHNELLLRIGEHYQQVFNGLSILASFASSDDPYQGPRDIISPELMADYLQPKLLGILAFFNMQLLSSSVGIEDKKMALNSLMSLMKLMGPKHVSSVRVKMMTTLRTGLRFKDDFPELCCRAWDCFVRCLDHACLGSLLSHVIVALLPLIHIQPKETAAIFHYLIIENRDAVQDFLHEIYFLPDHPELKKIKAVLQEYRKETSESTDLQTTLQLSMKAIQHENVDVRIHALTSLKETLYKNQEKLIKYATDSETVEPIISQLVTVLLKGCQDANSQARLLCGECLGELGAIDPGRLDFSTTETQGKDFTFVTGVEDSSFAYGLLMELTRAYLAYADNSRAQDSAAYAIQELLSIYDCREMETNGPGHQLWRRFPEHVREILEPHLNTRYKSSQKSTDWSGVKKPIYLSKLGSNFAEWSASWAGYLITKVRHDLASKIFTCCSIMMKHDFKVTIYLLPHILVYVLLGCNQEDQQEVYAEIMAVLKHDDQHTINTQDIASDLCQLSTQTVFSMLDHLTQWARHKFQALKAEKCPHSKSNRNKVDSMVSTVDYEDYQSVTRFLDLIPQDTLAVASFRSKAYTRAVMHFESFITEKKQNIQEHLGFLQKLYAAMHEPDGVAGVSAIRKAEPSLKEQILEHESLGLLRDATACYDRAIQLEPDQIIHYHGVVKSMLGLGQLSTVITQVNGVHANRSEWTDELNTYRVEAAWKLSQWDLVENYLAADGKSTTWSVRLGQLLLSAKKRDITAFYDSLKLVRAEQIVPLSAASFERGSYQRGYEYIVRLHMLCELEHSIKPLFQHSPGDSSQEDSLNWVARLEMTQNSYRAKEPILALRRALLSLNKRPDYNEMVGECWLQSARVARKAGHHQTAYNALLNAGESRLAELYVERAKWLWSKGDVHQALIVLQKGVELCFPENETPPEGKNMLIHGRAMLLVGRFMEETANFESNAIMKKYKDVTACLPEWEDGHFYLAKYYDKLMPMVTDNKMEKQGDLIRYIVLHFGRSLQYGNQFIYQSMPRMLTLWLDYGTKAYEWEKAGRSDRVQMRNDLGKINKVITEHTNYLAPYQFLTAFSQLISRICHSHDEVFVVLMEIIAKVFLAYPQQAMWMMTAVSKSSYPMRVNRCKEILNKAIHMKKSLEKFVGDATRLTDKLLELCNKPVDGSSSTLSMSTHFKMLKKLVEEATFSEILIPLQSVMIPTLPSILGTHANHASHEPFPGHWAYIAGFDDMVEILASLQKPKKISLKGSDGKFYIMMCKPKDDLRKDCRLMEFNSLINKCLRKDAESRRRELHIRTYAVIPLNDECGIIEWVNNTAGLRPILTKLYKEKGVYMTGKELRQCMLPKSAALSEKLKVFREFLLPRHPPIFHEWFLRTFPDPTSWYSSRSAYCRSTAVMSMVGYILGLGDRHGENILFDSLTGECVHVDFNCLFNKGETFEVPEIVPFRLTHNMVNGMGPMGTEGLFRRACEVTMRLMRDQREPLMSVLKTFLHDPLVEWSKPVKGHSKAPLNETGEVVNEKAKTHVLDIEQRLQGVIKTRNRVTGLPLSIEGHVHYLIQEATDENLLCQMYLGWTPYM
Sequence of ATR/ATRIP (Homo sapiens) (Q8WXE1 whole entry, looked up): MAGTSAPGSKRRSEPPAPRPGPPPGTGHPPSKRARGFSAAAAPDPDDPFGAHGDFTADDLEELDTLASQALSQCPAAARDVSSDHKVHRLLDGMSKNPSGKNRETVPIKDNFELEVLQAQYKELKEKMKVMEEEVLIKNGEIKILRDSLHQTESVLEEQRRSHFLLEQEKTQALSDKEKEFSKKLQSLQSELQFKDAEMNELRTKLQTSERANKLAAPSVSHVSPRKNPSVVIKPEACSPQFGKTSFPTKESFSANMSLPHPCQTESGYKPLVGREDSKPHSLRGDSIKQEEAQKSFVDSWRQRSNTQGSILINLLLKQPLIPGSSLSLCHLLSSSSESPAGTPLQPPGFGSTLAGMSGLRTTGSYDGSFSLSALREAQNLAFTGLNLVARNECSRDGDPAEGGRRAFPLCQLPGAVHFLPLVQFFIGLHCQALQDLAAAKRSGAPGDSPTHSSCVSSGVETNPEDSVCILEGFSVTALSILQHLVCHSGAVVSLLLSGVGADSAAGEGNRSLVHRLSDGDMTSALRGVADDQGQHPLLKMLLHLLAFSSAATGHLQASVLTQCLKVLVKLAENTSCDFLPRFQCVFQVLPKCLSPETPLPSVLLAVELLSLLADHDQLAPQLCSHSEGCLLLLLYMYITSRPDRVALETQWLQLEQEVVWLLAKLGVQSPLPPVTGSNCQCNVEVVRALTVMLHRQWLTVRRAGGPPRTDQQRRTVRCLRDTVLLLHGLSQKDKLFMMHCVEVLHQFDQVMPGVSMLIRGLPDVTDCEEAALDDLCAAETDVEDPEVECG

Measured: % residual kinase activity

Sequence of Protein-tyrosine kinase 6 (Homo sapiens) (Q13882 whole entry, looked up): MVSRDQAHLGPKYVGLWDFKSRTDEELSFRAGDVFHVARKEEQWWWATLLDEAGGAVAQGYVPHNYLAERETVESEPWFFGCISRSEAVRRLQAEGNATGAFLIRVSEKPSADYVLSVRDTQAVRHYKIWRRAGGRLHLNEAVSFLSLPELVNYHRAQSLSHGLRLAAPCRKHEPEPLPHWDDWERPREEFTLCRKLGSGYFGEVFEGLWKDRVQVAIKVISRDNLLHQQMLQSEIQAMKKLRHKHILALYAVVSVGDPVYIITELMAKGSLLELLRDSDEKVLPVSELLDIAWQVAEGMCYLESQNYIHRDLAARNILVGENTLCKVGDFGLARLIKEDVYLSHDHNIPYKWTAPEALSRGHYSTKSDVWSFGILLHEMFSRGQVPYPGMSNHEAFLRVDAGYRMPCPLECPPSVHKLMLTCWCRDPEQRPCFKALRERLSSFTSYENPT
Sequence of Serine/threonine-protein kinase pim-2 (Homo sapiens) (Q9P1W9 whole entry, looked up): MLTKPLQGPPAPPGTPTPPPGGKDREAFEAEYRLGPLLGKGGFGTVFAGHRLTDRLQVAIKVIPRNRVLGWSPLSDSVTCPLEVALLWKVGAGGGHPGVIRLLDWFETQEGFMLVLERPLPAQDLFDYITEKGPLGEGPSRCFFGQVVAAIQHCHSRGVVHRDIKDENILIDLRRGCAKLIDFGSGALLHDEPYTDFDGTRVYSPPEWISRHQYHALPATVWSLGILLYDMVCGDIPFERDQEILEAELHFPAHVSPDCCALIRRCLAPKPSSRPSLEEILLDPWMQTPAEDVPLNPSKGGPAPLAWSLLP

CN1CCN(c2cnc3c(C4CCN(C(=O)c5ccc(OC(F)(F)F)cc5N)CC4)ncnc3c2)CC1 [BAY-885]
inactive: [1] 101% | [2] 108% | Homo sapiens 112% | [3] 99% | [4] 110% | [5] 106% | [6] 127% | [7] 121% | [8] 109% | [9] 103% | [10] 84% | ATR/ATRIP (Homo sapiens) 100%

From ChEMBL document CHEMBL4507268 (2021)
